Converted amounts (≈) assume the structure as drawn.
What was measured:
VRE = test: Susceptibility of the subject's blood culture isolate (treatment history); format: cell-based; settings: 2012 July
Excerpt: 11, 2013; the plan was for at least 8 weeks of antibiotic therapy.

S. aureus = test: Broth microdilution MIC, European bacteraemia isolates 2010-2012; format: cell-based; settings: S. aureus Methicillin-resistant (1,708)
Protocol: (§1) A total of 2,904 clinical strains responsible for documented bacteremia among unique hospitalized patients in 38 hospitals in 11 European Union countries. Israel, Russia, Turkey and Ukraine were included in this study (2010-2012). Isolates were submitted to a central monitoring laboratory (JMI Laboratories, North Liberty. Iowa. USA), following previously established protocols. Bacterial species identification was performed by using an automated system (Vitek®2; bioMèrieux, Hazelwood, Mo., USA) or conventional biochemical algorithms, as required.
(§2) Isolates were tested for susceptibility by broth microdilution methods following the Clinical and Laboratory Standards Institute (CLSI; M07-A9, 2012) document. Susceptibility testing was performed in cation-adjusted Mueller-Hinton broth (CA-MHB) using dry-form panels manufactured by Thermo Fisher Scientific, formerly TREK Diagnostics Systems/Sensititre (Cleveland. Ohio, USA). These panels provide results equivalent to the CLSI-approved broth microdilution method supplemented with 0.002% polysorbate-80.
(§3) Quality assurance was performed by concurrent testing of CLSI-recommended (M100-S23, 2013) strains: E. faecalis ATCC 29212 and S. aureus ATCC 29213. Interpretation of comparator MIC results was in accordance with published CLSI (M100-S23) and European Committee on Antimicrobial Susceptibility Testing (EUCAST, 2013) criteria.

[1] = tested on: Coagulase-negative staphylococci; test: as above; format: cell-based, coagulase-negative staphylococci (CoNS); settings: Coagulase-negative staphylococci (646)
Protocol: as §1, §2, §3

E. faecalis [2] = test: as above; format: cell-based, Enterococcus faecalis
Protocol: as §1, §2, §3

E. faecium [3] = test: as above; format: cell-based, Enterococcus faecium; settings: for % Resistant, CLSI / % Susceptible, CLSI: CLSI M100-S23 breakpoints; for % Resistant, EUCAST / % Susceptible, EUCAST: EUCAST 2013 breakpoints; for MIC90: read-out: MIC 90%
Protocol: as §1, §2, §3

E. faecalis [4] = test: Broth microdilution MIC, US isolates 2011-2012, blood vs non-blood; format: cell-based
Protocol: (§4) 527 E. faecalis, 176 E. faecium, and 790 BHS (335 S. pyogenes and 455 S. agalactiae) clinical, single patient, non-consecutive isolates were collected in 2011-2012 from 46 sites geographically distributed across the United States. The MICs were determined by broth microdilution testing performed in accordance with CLSI M7 and M100 guidelines. From the resulting database, this analysis focused on the activities of ORI, vancomycin (VAN), daptomycin (DAP), and linezolid (LZD) according to specimen source.

E. faecium [5] = test: as above; format: cell-based
Protocol: as §4

S. agalactiae = test: as above; format: cell-based
Protocol: as §4

S. pyogenes = test: as above; format: cell-based
Protocol: as §4

MDR SA = test: Microdilution MIC against MDR SA by specimen source; format: cell-based, S. aureus
Protocol: 456 clinical, single-patient, non-consecutive, MDR SA isolates from the known specimen sources collected in 2011-2012 were analyzed. MDR was defined as resistant to ≧3 of the following: erythromycin, clindamycin, gentamicin, levofloxacin, and trimethoprim/sulfamethoxazole. 382 were MRSA and 74 were MSSA. MICs were determined by microdilution testing in accordance with CLSI M7 and M100 guidelines. Although other comparator drugs were tested, this analysis focuses on the activities of ORI, VAN, DAP, and LZD.

[6] = E. faecalis (445), CLSI M100-S23 breakpoints
[7] = E. faecalis (445), EUCAST 2013 breakpoints
[8] = E. faecium Vancomycin-resistant (VanA-phenotype) (153)
[9] = E. faecium Vancomycin-susceptible (257)
[10] = Table 2, E. faecium Vancomycin-susceptible (257)

In the case of `CC(=O)NC[C@H]1CN(c2ccc(N3CCOCC3)c(F)c2)C(=O)O1` [Linezolid, linezolid], the susceptibility (VRE) is reported as “susceptible”, the “% Resistant, CLSI” value (S. aureus; CLSI M100-S23 breakpoints) is reported as 0.0% and the “% Susceptible, CLSI” value (S. aureus; CLSI M100-S23 breakpoints) is reported as 100.0%. The “% Resistant, EUCAST” value (S. aureus; EUCAST 2013 breakpoints) was 0.0%, the “% Susceptible, EUCAST” value (S. aureus; EUCAST 2013 breakpoints) was 100.0% and the MIC50 (S. aureus; Staphylococcus aureus, Table 2, read-out: MIC 50%) was 1 µg/mL (≈ 2.96 µM). The MIC90 (S. aureus; Staphylococcus aureus, Table 2, read-out: MIC 90%) was 1 µg/mL (≈ 2.96 µM), the “MIC Range” value (S. aureus; Table 2) was 0.25 to 2 µg/mL and the “% Resistant, CLSI” value ([1]; CLSI M100-S23 breakpoints) was 0.8%. For the same compound, the MIC50 ([1]; Table 2, read-out: MIC 50%) was 0.5 µg/mL (≈ 1.48 µM), the MIC90 ([1]; Table 2, read-out: MIC 90%) was 1 µg/mL (≈ 2.96 µM) and the “% Resistant, CLSI” value (E. faecalis [2]; [6]) was 0.0%. For the same compound, the “% Susceptible, CLSI” value (E. faecalis [2]; [6]) was 100.0%, the “% Resistant, EUCAST” value (E. faecalis [2]; [7]) was 0.0% and the “% Susceptible, EUCAST” value (E. faecalis [2]; [7]) was 100.0%. For the same compound, the “% susceptible” value (E. faecalis [2]; E. faecalis strains, criteria not stated) was 100%, the MIC50 (E. faecalis [2]; Enterococcus faecalis, Table 2, E. faecalis (445), read-out: MIC 50%) was 1 µg/mL (≈ 2.96 µM) and the MIC90 (E. faecalis [2]; Enterococcus faecalis, Table 2, E. faecalis (445), read-out: MIC 90%) was 2 µg/mL (≈ 5.93 µM). For the same compound, the “MIC Range” value (E. faecalis [2]; Table 2, E. faecalis (445), includes four VanA-phenotype strains) was 0.5 to 2 µg/mL, the “% Resistant, CLSI” value (E. faecium [3]; [8]) was 3.8% and the “% Susceptible, CLSI” value (E. faecium [3]; [8]) was 96.2%. For the same compound, the “% Resistant, EUCAST” value (E. faecium [3]; [8]) was 3.8%, the “% Susceptible, EUCAST” value (E. faecium [3]; [8]) was 96.2% and the “% Resistant, CLSI” value (E. faecium [3]; [9]) was 0.0%. The “% Susceptible, CLSI” value (E. faecium [3]; [9]) was 100.0%, the “% Resistant, EUCAST” value (E. faecium [3]; [9]) was 0.0% and the “% Susceptible, EUCAST” value (E. faecium [3]; [9]) was 100.0%. It also gave an MIC50 (E. faecium [3]; Enterococcus faecium, Table 2, E. faecium Vancomycin-resistant (VanA-phenotype) (153), read-out: MIC 50%) of 1 µg/mL (≈ 2.96 µM), an MIC90 (E. faecium [3]; Enterococcus faecium, Table 2, E. faecium Vancomycin-resistant (VanA-phenotype) (153)) of 2 µg/mL (≈ 5.93 µM) and an MIC90 (E. faecium [3]; Enterococcus faecium, Table 2, E. faecium Vancomycin-susceptible (257)) of 1 µg/mL (≈ 2.96 µM). The “MIC Range” value (E. faecium [3]; Table 2, E. faecium Vancomycin-resistant (VanA-phenotype) (153)) was 0.5 to 8 µg/mL, the “MIC 50%” value (E. faecium [3]; [10]) was 1 µg/mL (≈ 2.96 µM) and the “MIC Range” value (E. faecium [3]; [10]) was 0.25 to 2 µg/mL. For the same compound, the “% susceptible” value (E. faecium [3]; VanA-phenotype E. faecium, criteria not stated) was 96.2%, the MIC90 (E. faecalis [4]; Blood, N 116) was 2 µg/mL (≈ 5.93 µM) and the MIC90 (E. faecalis [4]; Non-Blood, N 411) was 2 µg/mL (≈ 5.93 µM). It also gave an MIC90 (E. faecium [5]; Blood, N 84) of 2 µg/mL (≈ 5.93 µM), an MIC90 (E. faecium [5]; Non-Blood, N 92) of 2 µg/mL (≈ 5.93 µM) and an MIC90 (S. agalactiae; Blood, N 100) of 1 µg/mL (≈ 2.96 µM). It also gave an MIC90 (S. agalactiae; Non-Blood, N 355) of 1 µg/mL (≈ 2.96 µM), an MIC90 (S. pyogenes; Blood, N 53) of 1 µg/mL (≈ 2.96 µM) and an MIC90 (S. pyogenes; Non-Blood, N 282) of 1 µg/mL (≈ 2.96 µM). The MIC50 (MDR SA; Blood, n = 108) was 2 µg/mL (≈ 5.93 µM), the MIC90 (MDR SA; Blood, n = 108) was 2 µg/mL (≈ 5.93 µM) and the Mode (MIC) (MDR SA; Blood, n = 108) was 2 µg/mL. The MIC50 (MDR SA; Respiratory, N = 157) was 2 µg/mL (≈ 5.93 µM), the MIC90 (MDR SA; Respiratory, N = 157) was 2 µg/mL (≈ 5.93 µM) and the Mode (MIC) (MDR SA; Respiratory, N = 157) was 2 µg/mL. For the same compound, the MIC50 (MDR SA; Skin/Wound, N = 191) was 2 µg/mL (≈ 5.93 µM), the MIC90 (MDR SA; Skin/Wound, N = 191) was 2 µg/mL (≈ 5.93 µM) and the Mode (MIC) (MDR SA; Skin/Wound, N = 191) was 2 µg/mL.

Reference: patent US20160206688A1, “METHODS FOR TREATING BACTEREMIA AND OSTEOMYELITIS USING ORITAVANCIN” (THE MEDICINES COMPANY, priority 2013, published 2016)
